Data published in ChEMBL document CHEMBL3507680, “University of Dundee, Gates Library screen for HepG2 cell viability”.

Experiment: Human HepG2 cell viability assay in 384 well format
Assay type: toxicity, cell-based
Design: dose 125 nL, time 70.5 hour; concentration not given beside the values
Settings: HepG2 cells, read-out: Inhibition

Which cytotoxicity at 70.5 h does the source give for Cn1ccc2ccc(C(=O)N3CCN(C(=O)OC(C)(C)C)CC3)cc21 here?
Its cytotoxicity at 70.5 h is 3.39%.

Which cytotoxicity at 70.5 h does the source give for NC(=O)c1ccccc1NC(=O)CCN1CCN(CCO)CC1 here?
The cytotoxicity at 70.5 h was -10.4%.

For CC1=Nc2c(c(=O)[nH]n2C(C)C)C(c2ccc3c(c2)n(C)c(=O)n3C)S1 (stereo unspecified), which cytotoxicity at 70.5 h is on record?
Its cytotoxicity at 70.5 h is -9%.

For CC1=Nc2c(c(=O)[nH]n2C(C)C)C(c2ccc3nccnc3c2)S1 (stereo unspecified), which cytotoxicity at 70.5 h is on record?
Its cytotoxicity at 70.5 h is -2.49%.

Which cytotoxicity at 70.5 h does the source give for Cc1nn2cnnc2c(C)c1CCC(=O)Nc1nc2c(s1)CCC2 here?
The cytotoxicity at 70.5 h was -13%.

Which cytotoxicity at 70.5 h does the source give for O=C(Nc1cccnc1-n1cc(Br)cn1)C1CCCC1 here?
Its cytotoxicity at 70.5 h is -25.7%.

With COc1coc(C(=O)Nc2nc(-c3ccccn3)cs2)cc1=O as the molecule, how does the cytotoxicity at 70.5 h read?
Its cytotoxicity at 70.5 h is -7.13%.

For CC(C)n1ncc2c1NC(=O)CC21C(=O)Nc2c(Br)cc(Cl)cc21 (stereo unspecified), which cytotoxicity at 70.5 h is on record?
Its cytotoxicity at 70.5 h is -14.8%.

Which cytotoxicity at 70.5 h does the source give for COCCCNC(=O)c1cc(-c2ccc(OC)cc2)nn1C here?
Its cytotoxicity at 70.5 h is 4.27%.

For CC(C)n1ncc2c1NC(=O)CC21C(=O)Nc2c(Cl)ccc(Cl)c21 (stereo unspecified), which cytotoxicity at 70.5 h is on record?
Its cytotoxicity at 70.5 h is -12.2%.

For CC(C)n1ncc2c1NC(=O)CC21C(=O)Nc2c(Cl)cc(Br)cc21 (stereo unspecified), which cytotoxicity at 70.5 h is on record?
The cytotoxicity at 70.5 h was -0.17%.

With COc1ccc2nnc(CCCC(=O)NCCc3ccccc3)n2n1 as the molecule, how does the cytotoxicity at 70.5 h read?
The cytotoxicity at 70.5 h was -9.61%.

With CN1C(=O)COc2cc(NC(=O)CCc3nc4cccnc4[nH]3)ccc21 as the molecule, how does the cytotoxicity at 70.5 h read?
Its cytotoxicity at 70.5 h is -11.3%.

For COc1ccc2nnc(CCC(=O)NCc3cccn3C)n2n1, which cytotoxicity at 70.5 h is on record?
Its cytotoxicity at 70.5 h is -2.62%.

Which cytotoxicity at 70.5 h does the source give for COc1ccc(-c2cc(C(=O)NCCC(C)C)n(C)n2)cc1 here?
The cytotoxicity at 70.5 h was 4.25%.

With CC(C)n1ncc2c1NC(=O)CC21C(=O)Nc2cc(Cl)cc(Cl)c21 (stereo unspecified) as the molecule, how does the cytotoxicity at 70.5 h read?
The cytotoxicity at 70.5 h was -17.8%.

With Cc1cc(C)nc(N2CCCC(C(=O)Nc3n[nH]c(C(C)C)n3)C2)n1 (stereo unspecified) as the molecule, how does the cytotoxicity at 70.5 h read?
Its cytotoxicity at 70.5 h is -7.23%.

Which cytotoxicity at 70.5 h does the source give for O=C(CCCNc1ncccn1)Nc1ccc(Cn2cncn2)cc1 here?
Its cytotoxicity at 70.5 h is -10.8%.

Which cytotoxicity at 70.5 h does the source give for Cc1nn(-c2ncccn2)c2c1C(c1cnn(C)c1)SCC(=O)N2 (stereo unspecified) here?
The cytotoxicity at 70.5 h was -24.2%.

For COC(=O)CNC(=O)c1cn(-c2ccccn2)c(=O)c2ccccc12, which cytotoxicity at 70.5 h is on record?
Its cytotoxicity at 70.5 h is -9.1%.

For Cc1nc(C(=O)N2CCN(S(C)(=O)=O)CC2)c(-c2ccccc2)s1, which cytotoxicity at 70.5 h is on record?
The cytotoxicity at 70.5 h was 9.71%.

With CC(C)(C)C1SCC(=O)Nc2c1c(O)nn2C1CCCCC1 (stereo unspecified) as the molecule, how does the cytotoxicity at 70.5 h read?
Its cytotoxicity at 70.5 h is 8.92%.

Which cytotoxicity at 70.5 h does the source give for O=C(CCNC(=O)c1cnccn1)Nc1ncc[nH]1 here?
Its cytotoxicity at 70.5 h is -31.8%.

For CCS(=O)(=O)N1CCc2nnc(CN(C)C(C)C)n2CC1, which cytotoxicity at 70.5 h is on record?
Its cytotoxicity at 70.5 h is 19.5%.

Which cytotoxicity at 70.5 h does the source give for Cc1occc1C(=O)N1C[C@@H]2CN(S(C)(=O)=O)CCO[C@@H]2C1 here?
Its cytotoxicity at 70.5 h is 46.9%.

With CNC(=O)N1CCC2(CC1)C(=O)N(C)c1c(F)cccc12 as the molecule, how does the cytotoxicity at 70.5 h read?
The cytotoxicity at 70.5 h was 4.07%.

Which cytotoxicity at 70.5 h does the source give for Cn1nnc2c1CCN(S(C)(=O)=O)C2COCC1CC1 (stereo unspecified) here?
The cytotoxicity at 70.5 h was 0.405%.

For O=C(NCCN1CCOCC1)c1cc2c(s1)CCN2Cc1cccnc1, which cytotoxicity at 70.5 h is on record?
The cytotoxicity at 70.5 h was -3.99%.

Which cytotoxicity at 70.5 h does the source give for CCN1C(=O)CCCC12CCCN(C(=O)c1ccoc1)C2 (stereo unspecified) here?
The cytotoxicity at 70.5 h was -3.69%.

For CN1C(=O)C2(CCN(C(=O)c3cccnc3)CC2)c2cccc(F)c21, which cytotoxicity at 70.5 h is on record?
The cytotoxicity at 70.5 h was -2.04%.

Which cytotoxicity at 70.5 h does the source give for Cc1nc(C)c2c(n1)CCN(C(=O)CN(C)C)CC2 here?
Its cytotoxicity at 70.5 h is 2.27%.

For CC(C)Nc1ncnc2c1CCNCC2, which cytotoxicity at 70.5 h is on record?
Its cytotoxicity at 70.5 h is 2.95%.

With CN(C)CC(=O)N1CCc2ncnc(-c3ccoc3)c2CC1 as the molecule, how does the cytotoxicity at 70.5 h read?
Its cytotoxicity at 70.5 h is -0.0529%.

Which cytotoxicity at 70.5 h does the source give for CN1C(=O)CCC12CCCN(C(=O)c1ccoc1)C2 (stereo unspecified) here?
Its cytotoxicity at 70.5 h is -1.96%.

For Cc1cnc(CNC(=O)c2cc3c(s2)CCN3S(C)(=O)=O)cn1, which cytotoxicity at 70.5 h is on record?
The cytotoxicity at 70.5 h was -0.66%.

With CS(=O)(=O)N1CCc2c(nnn2CC2CC2)C1COCC1CC1 (stereo unspecified) as the molecule, how does the cytotoxicity at 70.5 h read?
The cytotoxicity at 70.5 h was -1.97%.

Which cytotoxicity at 70.5 h does the source give for CNC(=O)NC1CC2(CCNCC2)c2ccc(C)cc21 (stereo unspecified) here?
Its cytotoxicity at 70.5 h is 18.2%.

With CC(C)CN1C(=O)CO[C@@H]2CN(C(=O)N(C)C)C[C@H]21 as the molecule, how does the cytotoxicity at 70.5 h read?
Its cytotoxicity at 70.5 h is 2.11%.

Which cytotoxicity at 70.5 h does the source give for O=C(NCCc1ccccc1)N1CC[C@@H]2CNS(=O)(=O)[C@@H]2CC1 here?
Its cytotoxicity at 70.5 h is 0.679%.

Which cytotoxicity at 70.5 h does the source give for CC(C)CN1C(=O)CO[C@@H]2CN(C(=O)CC(F)(F)F)C[C@H]21 here?
The cytotoxicity at 70.5 h was -1.53%.

For CC(C)CN1C(=O)CO[C@@H]2CN(C(=O)N3CCOCC3)C[C@H]21, which cytotoxicity at 70.5 h is on record?
The cytotoxicity at 70.5 h was -2.58%.

With CC(C)CN1C(=O)CO[C@@H]2CN(C(=O)[C@H]3CCCO3)C[C@H]21 as the molecule, how does the cytotoxicity at 70.5 h read?
The cytotoxicity at 70.5 h was -1.2%.

Which cytotoxicity at 70.5 h does the source give for CCN1C(=O)CC[C@@H]2[C@H]1CCN2C(=O)Cc1cccc(OC)c1 here?
The cytotoxicity at 70.5 h was 0.943%.

With COc1cccc(CN2CCC3(CCN(c4ncc(C)cn4)C3)C2=O)c1 (stereo unspecified) as the molecule, how does the cytotoxicity at 70.5 h read?
The cytotoxicity at 70.5 h was -0.0299%.

For Cc1ccc(C(=O)N2CC[C@@H]3[C@H]2CCC(=O)N3CC2CC2)o1, which cytotoxicity at 70.5 h is on record?
Its cytotoxicity at 70.5 h is -0.589%.

Which cytotoxicity at 70.5 h does the source give for Cc1cccc(CN2CCS(=O)(=O)[C@@H]3CCN(C(=O)C4CC4)CC[C@@H]32)n1 here?
Its cytotoxicity at 70.5 h is 15.9%.

With Cc1ccnc(C(=O)N2C[C@@H]3CN(S(C)(=O)=O)CCO[C@@H]3C2)c1 as the molecule, how does the cytotoxicity at 70.5 h read?
Its cytotoxicity at 70.5 h is 18%.

For CC(C)N(C)Cc1nnc2n1CCN(S(=O)(=O)C1CC1)CC2, which cytotoxicity at 70.5 h is on record?
The cytotoxicity at 70.5 h was -0.847%.

With CC(C)N(C)Cc1nnc2n1CCCN(S(=O)(=O)C1CC1)C2 as the molecule, how does the cytotoxicity at 70.5 h read?
Its cytotoxicity at 70.5 h is -5.26%.

With O=C1CC(c2ccncc2)C2(CCN(C(=O)NC3CC3)CC2)N1 (stereo unspecified) as the molecule, how does the cytotoxicity at 70.5 h read?
Its cytotoxicity at 70.5 h is -1.57%.

With O=C1NC2(CCN(CCO)CC2)CC1c1ccccc1 (stereo unspecified) as the molecule, how does the cytotoxicity at 70.5 h read?
Its cytotoxicity at 70.5 h is -2.09%.

For O=C(c1ccccc1)N1C[C@@H]2CCCO[C@@H]2[C@H](N2CCCC2)C1, which cytotoxicity at 70.5 h is on record?
Its cytotoxicity at 70.5 h is -4.22%.

With O=C(c1ccoc1)N1CCCC2(CCC(=O)N2Cc2ccncc2)C1 (stereo unspecified) as the molecule, how does the cytotoxicity at 70.5 h read?
Its cytotoxicity at 70.5 h is -1.87%.

Which cytotoxicity at 70.5 h does the source give for CC(C)NC(=O)N1CCC2(CC1)NC(=O)CC2c1ccncc1 (stereo unspecified) here?
Its cytotoxicity at 70.5 h is -1.45%.

Which cytotoxicity at 70.5 h does the source give for CCS(=O)(=O)N1CC[C@@H]2[C@H](CC1)N(Cc1cccc(C)n1)CCS2(=O)=O here?
Its cytotoxicity at 70.5 h is 2.24%.

For CCC(=O)N1CC[C@@H]2[C@H](CC1)N(Cc1cccc(C)n1)CCS2(=O)=O, which cytotoxicity at 70.5 h is on record?
The cytotoxicity at 70.5 h was 1.51%.

Which cytotoxicity at 70.5 h does the source give for Cc1cc(CN2C[C@H]3CCC[C@@]3(COCC3CCOCC3)C2)no1 here?
The cytotoxicity at 70.5 h was 0.596%.

Which cytotoxicity at 70.5 h does the source give for CCCC(=O)N1CC[C@@H]2[C@H](CC1)N(Cc1cccc(C)n1)CCS2(=O)=O here?
Its cytotoxicity at 70.5 h is -2.09%.

For N#Cc1ccc(N2CCC3(CC2)CC(Oc2cccnc2)CO3)cc1 (stereo unspecified), which cytotoxicity at 70.5 h is on record?
Its cytotoxicity at 70.5 h is 9.42%.

For N#Cc1cccc(CN2CC3(CCCCN3c3cncnc3)CC2=O)c1 (stereo unspecified), which cytotoxicity at 70.5 h is on record?
Its cytotoxicity at 70.5 h is -0.331%.

For Cc1cccc(CN2Cc3[nH]nc(COCCO)c3C2)n1, which cytotoxicity at 70.5 h is on record?
Its cytotoxicity at 70.5 h is -0.969%.

Which cytotoxicity at 70.5 h does the source give for Cn1cccc1C(=O)N1CC[C@H]2[C@H]1CCN2CC1CCOCC1 here?
The cytotoxicity at 70.5 h was -0.0713%.

With Cc1noc(C)c1CN1C[C@@H]2CN(C(=O)c3cnccn3)C[C@@H]2C1 as the molecule, how does the cytotoxicity at 70.5 h read?
The cytotoxicity at 70.5 h was 0.0874%.

For CN(C)C(=O)C1CN(Cc2ccsc2)Cc2ccnn2C1 (stereo unspecified), which cytotoxicity at 70.5 h is on record?
Its cytotoxicity at 70.5 h is 12.7%.

Which cytotoxicity at 70.5 h does the source give for Cn1cccc1C(=O)N1CC[C@H]2[C@H]1CCN2CC1CC1 here?
Its cytotoxicity at 70.5 h is -0.69%.

With c1cncc(COC2COC3(CCN(c4cnccn4)CC3)C2)c1 (stereo unspecified) as the molecule, how does the cytotoxicity at 70.5 h read?
Its cytotoxicity at 70.5 h is 15.1%.

For CNC(=O)COC1COC2(CCN(c3ncccn3)CC2)C1 (stereo unspecified), which cytotoxicity at 70.5 h is on record?
Its cytotoxicity at 70.5 h is -1.44%.

For Cc1ccc(C(=O)N2C[C@@H]3CCCO[C@@H]3[C@H](N3CCCC3)C2)cn1, which cytotoxicity at 70.5 h is on record?
The cytotoxicity at 70.5 h was 0.948%.

Which cytotoxicity at 70.5 h does the source give for Cc1ccc2c(n1)N(CC1CC1)CCN(Cc1ccco1)C2 here?
The cytotoxicity at 70.5 h was 1.82%.

With c1ccc(CN2C[C@H]3CCC[C@@]3(COCC3CCOCC3)C2)nc1 as the molecule, how does the cytotoxicity at 70.5 h read?
The cytotoxicity at 70.5 h was 0.897%.

For c1ccc(CN2C[C@@H]3COC[C@]3(COCC3CCOCC3)C2)nc1, which cytotoxicity at 70.5 h is on record?
The cytotoxicity at 70.5 h was 1.04%.

With Cc1nc2c(c(NC(C)C)n1)CCN(Cc1cccnc1)CC2 as the molecule, how does the cytotoxicity at 70.5 h read?
Its cytotoxicity at 70.5 h is 4.65%.

For CC(C)NC(=O)C1CN(Cc2ccsc2)Cc2ccnn2C1 (stereo unspecified), which cytotoxicity at 70.5 h is on record?
Its cytotoxicity at 70.5 h is 1.63%.

With Cc1ccsc1CN1CCC2(CC1)CC(OCc1cccnc1)CO2 (stereo unspecified) as the molecule, how does the cytotoxicity at 70.5 h read?
Its cytotoxicity at 70.5 h is -0.0736%.

For c1ccc(CN2CCc3ncnc(N4CCCC4)c3CC2)nc1, which cytotoxicity at 70.5 h is on record?
Its cytotoxicity at 70.5 h is -4.15%.

For Cn1cc(CN2CCc3ncnc(N4CCOCC4)c3CC2)cn1, which cytotoxicity at 70.5 h is on record?
Its cytotoxicity at 70.5 h is -1.66%.
